Laboratory results published in publication PMC8288134, “Synthesis, potential antitumor activity, cell cycle analysis, and multitarget mechanisms of novel hydrazones incorporating a 4-methylsulfonylbenzene scaffold: a molecular docking study” (Journal of Enzyme Inhibition and Medicinal Chemistry, 2021).
Read-outs that look alike come from different tables or passages of the source.

Tests used:
[1] = tested on: HCT-15; set-up: method as in https://dtp.cancer.gov/dtpstandard/dwindex/index.jsp; settings: reference drugs, ref https://dtp.cancer.gov/dtpstandard/dwindex/index.jsp; cited from earlier work
[2] = tested on: A549/ATCC; set-up: method as in https://dtp.cancer.gov/dtpstandard/dwindex/index.jsp; settings: reference drugs, ref https://dtp.cancer.gov/dtpstandard/dwindex/index.jsp; cited from earlier work
[3] = tested on: MDA-MB-435; set-up: method as in https://dtp.cancer.gov/dtpstandard/dwindex/index.jsp; settings: reference drugs, ref https://dtp.cancer.gov/dtpstandard/dwindex/index.jsp; cited from earlier work
[4] = tested on: LOX IMVI; set-up: method as in https://dtp.cancer.gov/dtpstandard/dwindex/index.jsp; settings: reference drugs, ref https://dtp.cancer.gov/dtpstandard/dwindex/index.jsp; cited from earlier work
[5] = tested on: OVCAR-3; set-up: method as in https://dtp.cancer.gov/dtpstandard/dwindex/index.jsp; settings: reference drugs, ref https://dtp.cancer.gov/dtpstandard/dwindex/index.jsp; cited from earlier work
[6] = tested on: NCI-H460; set-up: method as in https://dtp.cancer.gov/dtpstandard/dwindex/index.jsp; settings: reference drugs, ref https://dtp.cancer.gov/dtpstandard/dwindex/index.jsp; cited from earlier work
[7] = tested on: colon cancer tumour cell lines; settings: cited from earlier work
[8] = tested on: IGROV1; set-up: method as in https://dtp.cancer.gov/dtpstandard/dwindex/index.jsp; settings: reference drugs, ref https://dtp.cancer.gov/dtpstandard/dwindex/index.jsp; cited from earlier work
[9] = tested on: prostate cancer tumour cell lines; settings: cited from earlier work
[10] = tested on: UACC-62; set-up: method as in https://dtp.cancer.gov/dtpstandard/dwindex/index.jsp; settings: reference drugs, ref https://dtp.cancer.gov/dtpstandard/dwindex/index.jsp; cited from earlier work
[11] = tested on: PC-3; set-up: method as in https://dtp.cancer.gov/dtpstandard/dwindex/index.jsp; settings: reference drugs, ref https://dtp.cancer.gov/dtpstandard/dwindex/index.jsp; cited from earlier work
[12] = tested on: HL-60(TB); set-up: method as in https://dtp.cancer.gov/dtpstandard/dwindex/index.jsp; settings: reference drugs, ref https://dtp.cancer.gov/dtpstandard/dwindex/index.jsp; cited from earlier work
[13] = tested on: NSC lung cancer tumour cell lines; settings: cited from earlier work
[14] = tested on: SN12C; set-up: method as in https://dtp.cancer.gov/dtpstandard/dwindex/index.jsp; settings: reference drugs, ref https://dtp.cancer.gov/dtpstandard/dwindex/index.jsp; cited from earlier work
[15] = tested on: HS 578 T; set-up: method as in https://dtp.cancer.gov/dtpstandard/dwindex/index.jsp; settings: reference drugs, ref https://dtp.cancer.gov/dtpstandard/dwindex/index.jsp; cited from earlier work
[16] = tested on: MALME-3M; set-up: method as in https://dtp.cancer.gov/dtpstandard/dwindex/index.jsp; settings: reference drugs, ref https://dtp.cancer.gov/dtpstandard/dwindex/index.jsp; cited from earlier work
[17] = tested on: HCT-15; experiment: NCI antitumor screen (SRB); format: cell-based; settings: Homo sapiens; for inhibition at 10 µM: one dose 10 µM, read-out: Growth inhibition percentage (GI%)
[18] = tested on: CCRF-CEM; experiment: NCI antitumor screen (SRB); format: cell-based; settings: Homo sapiens; for inhibition at 10 µM: one dose 10 µM, read-out: Growth inhibition percentage (GI%)
[19] = tested on: ACHN; experiment: NCI antitumor screen (SRB); format: cell-based; settings: Homo sapiens; for inhibition at 10 µM: one dose 10 µM, read-out: Growth inhibition percentage (GI%)
[20] = tested on: HL60 cells; experiment: Cell cycle analysis (PI, flow cytometry); format: cell-based, human; settings: HL60, 10.0 µM, 24 h
Protocol: Antitumor agents can induce apoptosis by activating signalling pathways, leading to G2/M phase arrest[73]^,[74]. Flow cytometry is used to measure cell growth in different cell cycle phases (pre-G1, G1, S, and G2/M)[73]^,[74]. […]. We used the solvent DMSO as a negative control. Briefly, we incubated HL60 cells with 10 µM compounds 6, 9, 16, and 20 for 24 h. Compounds 6, 9, 16, and 20 interfered with the normal cell cycle of HL60 cells. […] […].
Cell cycle analysis was carried out similar to our previous report using the Leukaemia HL-60 cell line stained with the DNA fluorochrome PI and analysed by FACSCalibur flow cytometer[40]^,[74].
Using a method similar to that of our previous report, cell cycle analysis was carried out using Leukemia HL-60 cell line, stained with the DNA fluorochrome PI, and analyzed by FACSCalibur flow cytometer. Leukemia HL-60 cell was seeded at a density of 2 × 10^5 cells/well and incubated for 24 h in six-well plates. Fetal bovine serum (10%) was added, and the cells were incubated at 37°C in an atmosphere of 5% CO2. The medium was replaced with 1% (v/v) dimethyl sulfoxide (DMSO), containing 10.0 μM of compound 9. […]
Afterward, […]
the samples were analyzed using a FACSCalibur flow cytometer. […]
(AA) to PGH2. […]

[21] = tested on: HS 578 T; experiment: NCI antitumor screen (SRB); format: cell-based; settings: Homo sapiens; for inhibition at 10 µM: one dose 10 µM, read-out: Growth inhibition percentage (GI%)
[22] = tested on: UO-31; experiment: NCI antitumor screen (SRB); format: cell-based, human; settings: for inhibition at 10 µM: read-out: Growth inhibition percentage (GI%)
[23] = tested on: BT-549; experiment: NCI antitumor screen (SRB); format: cell-based; settings: Homo sapiens; for inhibition at 10 µM: one dose 10 µM, read-out: Growth inhibition percentage (GI%)
[24] = tested on: NCI-H522; experiment: NCI antitumor screen (SRB); format: cell-based; settings: Homo sapiens
[25] = tested on: DU-145; experiment: NCI antitumor screen (SRB); format: cell-based; settings: Homo sapiens; for inhibition at 10 µM: one dose 10 µM, read-out: Growth inhibition percentage (GI%)
[26] = tested on: MCF7; experiment: NCI antitumor screen (SRB); format: cell-based; settings: Homo sapiens; for inhibition at 10 µM: one dose 10 µM, read-out: Growth inhibition percentage (GI%)
[27] = tested on: KM12; experiment: NCI antitumor screen (SRB); format: cell-based; settings: Homo sapiens; for inhibition at 10 µM: one dose 10 µM, read-out: Growth inhibition percentage (GI%)
[28] = tested on: 786-0; experiment: NCI antitumor screen (SRB); format: cell-based; settings: Homo sapiens; for inhibition at 10 µM: one dose 10 µM, read-out: Growth inhibition percentage (GI%)
[29] = tested on: NCI-H322M; experiment: NCI antitumor screen (SRB); format: cell-based; settings: Homo sapiens; for inhibition at 10 µM: read-out: Growth inhibition percentage (GI%)
[30] = tested on: A549/ATCC; experiment: NCI antitumor screen (SRB); format: cell-based; settings: Homo sapiens; for inhibition at 10 µM: one dose 10 µM, read-out: Growth inhibition percentage (GI%)
[31] = read-out: GI50 (subpanel average), reference drugs, ref https://dtp.cancer.gov/dtpstandard/dwindex/index.jsp
[32] = read-out: LC50 (subpanel average), reference drugs, ref https://dtp.cancer.gov/dtpstandard/dwindex/index.jsp
[33] = reference drugs, ref https://dtp.cancer.gov/dtpstandard/dwindex/index.jsp
[34] = Homo sapiens, UO-31, one dose 10 µM
[35] = NCI-H522, read-out: Growth inhibition percentage (GI%)
[36] = five concentrations 0.01-100 µM

Cc1ccc(-c2cc(C(F)(F)F)nn2-c2ccc(S(N)(=O)=O)cc2)cc1 [Celecoxib, celecoxib]
GI50 [1]: 15.8 µM
GI50 [2]: 15.8 µM
GI50 [3]: 15.8 µM
GI50 [4]: 19.9 µM
GI50 [5]: 15.8 µM
GI50 [6]: 15.8 µM
GI50 [7, 31]: 20.7 µM
CC50 [7, 32]: 66.5 µM
TGI (subpanel average) [7, 33]: 41.39 µM
GI50 [8]: 15.8 µM
GI50 [9, 31]: 14.2 µM
CC50 [9, 32]: 57 µM
TGI (subpanel average) [9, 33]: 28.37 µM
GI50 [10]: 15.8 µM
GI50 [11]: 12.6 µM
GI50 [12]: 15.8 µM
GI50 [13, 31]: 25.1 µM
CC50 [13, 32]: 67.1 µM
TGI (subpanel average) [13, 33]: 41.93 µM
GI50 [14]: 15.8 µM
GI50 [15]: 19.9 µM
GI50 [16]: 19.9 µM

CS(=O)(=O)c1ccc(C(=O)N/N=C/c2ccccc2O)cc1 [Compound 16]
inhibition at 10 µM [17]: 82%
inhibition at 10 µM [18]: 84.7%
inhibition at 10 µM [19]: 71.7%
%G0-G1 [20]: 39.42%
%G2-M [20]: 38.09%
%Pre-G1 [20]: 22.41%
%S [20]: 22.49%
inhibition at 10 µM [21]: 18.5%
inhibition at 10 µM [22, 34]: 82%
inhibition at 10 µM [23]: 47%
inhibition at 10 µM [24, 35]: 84.9%
inhibition at 10 µM [25]: 59.6%
inhibition at 10 µM [26]: 77.5%
inhibition at 10 µM [27]: 65.9%
inhibition at 10 µM [28]: 67%
inhibition at 10 µM [29]: 61.6%
inhibition at 10 µM [30]: 61.2%

CCN(CC)c1ccc(/C=N/NC(=O)c2ccc(S(C)(=O)=O)cc2)c(O)c1 [Compound 20]
GI50 [17, 36]: 0.092 µM
inhibition at 10 µM [17]: 71.5%
GI50 [18, 36]: 0.078 µM
inhibition at 10 µM [18]: 93.1%
GI50 [19, 36]: 0.117 µM
inhibition at 10 µM [19]: 82.9%
%G0-G1 [20]: 36.28%
%G2-M [20]: 34.29%
%Pre-G1 [20]: 24.31%
%S [20]: 29.43%
GI50 [21, 36]: 11.7 µM
inhibition at 10 µM [21]: 32%
inhibition at 10 µM ([22]; Homo sapiens, UO-31, UO-31, one dose 10 µM): 100%
GI50 ([22]; Homo sapiens, UO-31, five concentrations 0.01-100 µM): 0.139 µM
Growth inhibition percentage (GI%) ([22]; UO-31, one dose 10 µM): >100%
GI50 [23, 36]: 0.346 µM
inhibition at 10 µM [23]: 69.3%
GI50 ([24]; NCI-H522, five concentrations 0.01-100 µM): 0.395 µM
inhibition at 10 µM ([24]; NCI-H522, one dose 10 µM, read-out: Growth inhibition percentage (GI%)): 90.1%
GI50 [25, 36]: 0.144 µM
inhibition at 10 µM [25]: 75.5%
GI50 [26, 36]: 0.253 µM
inhibition at 10 µM [26]: 91.2%
GI50 [27, 36]: 0.404 µM
inhibition at 10 µM [27]: 74.1%
GI50 [28, 36]: 0.182 µM
inhibition at 10 µM [28]: 84.6%
GI50 [29, 36]: 0.228 µM
inhibition at 10 µM ([29]; one dose 10 µM): 75%
GI50 [30, 36]: 0.402 µM
inhibition at 10 µM [30]: 87.5%

Cc1ccc(C=NNC(=O)c2ccc(S(C)(=O)=O)cc2)cc1 [Compound 9, N'-(4-Methylbenzylidene)-4-(methylsulfonyl)benzohydrazide]
inhibition at 10 µM [17]: 16.3%
inhibition at 10 µM [18]: 20.8%
inhibition at 10 µM [19]: < 10%
%G0-G1 [20]: 43.15%
%G2-M [20]: 29.44%
%Pre-G1 [20]: 16.89%
%S [20]: 27.41%
inhibition at 10 µM [21]: < 10%
inhibition at 10 µM [22, 34]: 12.3%
inhibition at 10 µM [23]: < 10%
inhibition at 10 µM [24, 35]: 53.9%
inhibition at 10 µM [25]: < 10%
inhibition at 10 µM [26]: 21.4%
inhibition at 10 µM [27]: 25.1%
inhibition at 10 µM [28]: < 10%
inhibition at 10 µM ([29]; one dose 10 µM): < 10%
inhibition at 10 µM [30]: 12.7%

CS(=O)(=O)c1ccc(C(=O)NN=Cc2cccc3ccccc23)cc1 [Compound 6, 4-(Methylsulfonyl)-N'-(naphthalen-1-ylmethylene)benzohydrazide]
inhibition at 10 µM [17]: 50.2%
inhibition at 10 µM [18]: 22.4%
inhibition at 10 µM [19]: < 10%
%G0-G1 [20]: 48.31%
%G2-M [20]: 23.27%
%Pre-G1 [20]: 12.57%
%S [20]: 28.42%
inhibition at 10 µM [21]: 14.9%
inhibition at 10 µM [22, 34]: 21.5%
inhibition at 10 µM [23]: 12.4%
inhibition at 10 µM [24, 35]: 95.5%
inhibition at 10 µM [25]: 11.2%
inhibition at 10 µM [26]: 55.1%
inhibition at 10 µM [27]: 49.2%
inhibition at 10 µM [28]: < 10%
inhibition at 10 µM ([29]; one dose 10 µM): < 10%
inhibition at 10 µM [30]: 58.7%
